Laboratory results published in ChEMBL document CHEMBL1268894, “Synthesis and biological evaluation of novel hygromycin A antibacterial agents” (Bioorg Med Chem Lett, 2010).
In brackets after ≈: the same amount, converted by molar mass.

Columns and labels:
[1] = Permeability across apical to basolateral side in human Caco-2 cells; assay type: ADME, cell-based; conditions: read-out: permeability
[2] = Permeability across basolateral to apical side in human Caco-2 cells; assay type: ADME, cell-based; conditions: read-out: permeability
Streptococcus pneumoniae [3] = experiment: Antimicrobial activity against Streptococcus pneumoniae 1046; assay type: functional
Staphylococcus aureus [4] = experiment: Antimicrobial activity against Staphylococcus aureus 1146; assay type: functional
Staphylococcus aureus [5] = experiment: Antimicrobial activity against Staphylococcus aureus 1095; assay type: functional
Streptococcus pyogenes [6] = experiment: Antimicrobial activity against Streptococcus pyogenes 1079; assay type: functional
Streptococcus pneumoniae [7] = experiment: Antimicrobial activity against Streptococcus pneumoniae 1095; assay type: functional
Streptococcus pyogenes [8] = experiment: Antimicrobial activity against Streptococcus pyogenes 2035; assay type: functional
[9] = Oral bioavailability in rat; assay type: ADME, organism-based; conditions: in vivo

SMILES	Papp A→B [1]	Papp B→A [2]	MIC (Streptococcus pneumoniae [3])	MIC (Staphylococcus aureus [4])	MIC (Staphylococcus aureus [5])	MIC (Streptococcus pyogenes [6])	MIC (Streptococcus pneumoniae [7])	MIC (Streptococcus pyogenes [8])	bioavailability [9]
C/C(=C\c1cc(F)c(OCCCF)cc1F)C(=O)N[C@@H]1[C@H](O)[C@@H](O)[C@H]2OCO[C@H]2[C@@H]1OCc1ccccc1C#N	2.5 ×10⁻⁶ cm/s	22 ×10⁻⁶ cm/s	< 0.0625 µg/mL	1 µg/mL (≈ 1.78 µM)	1 µg/mL (≈ 1.78 µM)	< 0.0625 µg/mL	< 0.0625 µg/mL	0.25 µg/mL (≈ 0.444 µM)	–
CCO[C@@H]1[C@@H](O)[C@H]2OCO[C@H]2[C@H](O)[C@@H]1NC(=O)/C(C)=C/c1cc(F)c(OCCCF)cc1F	–	–	2 µg/mL (≈ 4.21 µM)	8 µg/mL (≈ 16.8 µM)	8 µg/mL (≈ 16.8 µM)	2 µg/mL (≈ 4.21 µM)	8 µg/mL (≈ 16.8 µM)	1 µg/mL (≈ 2.1 µM)	–
CCCO[C@@H]1[C@H](NC(=O)/C(C)=C/c2cc(F)c(OCCCF)cc2F)[C@H](O)[C@@H](O)[C@H]2OCO[C@H]21	–	–	1 µg/mL (≈ 2.04 µM)	8 µg/mL (≈ 16.3 µM)	4 µg/mL (≈ 8.17 µM)	1 µg/mL (≈ 2.04 µM)	2 µg/mL (≈ 4.09 µM)	4 µg/mL (≈ 8.17 µM)	–
CCCO[C@@H]1[C@@H](O)[C@H]2OCO[C@H]2[C@H](O)[C@@H]1NC(=O)/C(C)=C/c1cc(F)c(OCCCF)cc1F	–	–	64 µg/mL (≈ 131 µM)	> 64 µg/mL	> 64 µg/mL	32 µg/mL (≈ 65.4 µM)	64 µg/mL (≈ 131 µM)	64 µg/mL (≈ 131 µM)	–
C/C(=C\c1cc(F)c(OCCCF)cc1F)C(=O)N[C@@H]1[C@H](O)[C@@H](O)[C@H]2OCO[C@H]2[C@@H]1OCCCF	–	–	0.25 µg/mL (≈ 0.493 µM)	1 µg/mL (≈ 1.97 µM)	2 µg/mL (≈ 3.94 µM)	0.125 µg/mL (≈ 0.246 µM)	0.25 µg/mL (≈ 0.493 µM)	0.5 µg/mL (≈ 0.985 µM)	–
C/C(=C\c1cc(F)c(OCCCF)cc1F)C(=O)N[C@H]1[C@@H](O)[C@@H]2OCO[C@@H]2[C@H](O)[C@H]1OCCCF	–	–	8 µg/mL (≈ 15.8 µM)	8 µg/mL (≈ 15.8 µM)	16 µg/mL (≈ 31.5 µM)	2 µg/mL (≈ 3.94 µM)	8 µg/mL (≈ 15.8 µM)	8 µg/mL (≈ 15.8 µM)	–
C/C(=C\c1cc(F)c(OCCCF)cc1F)C(=O)N[C@@H]1[C@H](O)[C@@H](O)[C@H]2OCO[C@H]2[C@@H]1OCC1CC1	–	–	0.5 µg/mL (≈ 0.997 µM)	4 µg/mL (≈ 7.98 µM)	4 µg/mL (≈ 7.98 µM)	0.5 µg/mL (≈ 0.997 µM)	1 µg/mL (≈ 1.99 µM)	1 µg/mL (≈ 1.99 µM)	–
C/C(=C\c1cc(F)c(OCCCF)cc1F)C(=O)N[C@H]1[C@@H](O)[C@@H]2OCO[C@@H]2[C@H](O)[C@H]1OCC1CC1	–	–	64 µg/mL (≈ 128 µM)	> 64 µg/mL	> 64 µg/mL	32 µg/mL (≈ 63.8 µM)	> 64 µg/mL	> 64 µg/mL	–
C/C(=C\c1cc(F)c(OCCCF)cc1F)C(=O)N[C@@H]1[C@H](O)[C@@H](O)[C@H]2OCO[C@H]2[C@@H]1OCc1ccccc1	–	–	4 µg/mL (≈ 7.44 µM)	16 µg/mL (≈ 29.8 µM)	16 µg/mL (≈ 29.8 µM)	2 µg/mL (≈ 3.72 µM)	8 µg/mL (≈ 14.9 µM)	16 µg/mL (≈ 29.8 µM)	–
C/C(=C\c1cc(F)c(OCCCF)cc1F)C(=O)N[C@H]1[C@@H](O)[C@@H]2OCO[C@@H]2[C@H](O)[C@H]1OCc1ccccc1	10 ×10⁻⁶ cm/s	14 ×10⁻⁶ cm/s	32 µg/mL (≈ 59.5 µM)	64 µg/mL (≈ 119 µM)	> 64 µg/mL	32 µg/mL (≈ 59.5 µM)	32 µg/mL (≈ 59.5 µM)	64 µg/mL (≈ 119 µM)	–
C/C(=C\c1cc(F)c(OCCCF)cc1F)C(=O)N[C@@H]1[C@H](O)[C@@H](O)[C@H]2OCO[C@H]2[C@@H]1OCC1CCOC1 (stereo partly drawn)	–	–	0.5 µg/mL (≈ 0.941 µM)	2 µg/mL (≈ 3.76 µM)	4 µg/mL (≈ 7.53 µM)	0.25 µg/mL (≈ 0.47 µM)	1 µg/mL (≈ 1.88 µM)	1 µg/mL (≈ 1.88 µM)	–
COCCCO[C@@H]1[C@H](NC(=O)/C(C)=C/c2cc(F)c(OCCCF)cc2F)[C@H](O)[C@@H](O)[C@H]2OCO[C@H]21	–	–	4 µg/mL (≈ 7.7 µM)	16 µg/mL (≈ 30.8 µM)	16 µg/mL (≈ 30.8 µM)	2 µg/mL (≈ 3.85 µM)	4 µg/mL (≈ 7.7 µM)	2 µg/mL (≈ 3.85 µM)	90%
C/C(=C\c1cc(F)c(OCCCF)cc1F)C(=O)N[C@@H]1[C@H](O)[C@@H](O)[C@H]2OCO[C@H]2[C@@H]1OCC#N	–	–	0.5 µg/mL (≈ 1.03 µM)	1 µg/mL (≈ 2.06 µM)	2 µg/mL (≈ 4.11 µM)	0.25 µg/mL (≈ 0.514 µM)	1 µg/mL (≈ 2.06 µM)	0.5 µg/mL (≈ 1.03 µM)	–
C/C(=C\c1cc(F)c(OCCCF)cc1F)C(=O)N[C@@H]1[C@H](O)[C@@H](O)[C@H]2OCO[C@H]2[C@@H]1O	0.9 ×10⁻⁶ cm/s	5.9 ×10⁻⁶ cm/s	0.5 µg/mL (≈ 1.12 µM)	4 µg/mL (≈ 8.94 µM)	4 µg/mL (≈ 8.94 µM)	< 0.2 µg/mL	0.4 µg/mL (≈ 0.894 µM)	2 µg/mL (≈ 4.47 µM)	20%
CO[C@@H]1[C@@H](O)[C@@H](NC(=O)/C(C)=C/c2cc(F)c(OCCCF)cc2F)[C@@H](O)[C@@H]2OCO[C@H]12	–	–	25 µg/mL (≈ 54.2 µM)	100 µg/mL (≈ 217 µM)	> 100 µg/mL	50 µg/mL (≈ 108 µM)	25 µg/mL (≈ 54.2 µM)	100 µg/mL (≈ 217 µM)	–
C/C(=C\c1cc(F)c(OCCCF)cc1F)C(=O)N[C@H]1[C@@H](O)[C@@H]2OCO[C@@H]2C[C@H]1O	–	–	4 µg/mL (≈ 9.27 µM)	32 µg/mL (≈ 74.2 µM)	64 µg/mL (≈ 148 µM)	8 µg/mL (≈ 18.5 µM)	8 µg/mL (≈ 18.5 µM)	16 µg/mL (≈ 37.1 µM)	–
CO[C@@H]1[C@H](NC(=O)/C(C)=C/c2cc(F)c(OCCCF)cc2F)[C@H](O)[C@@H](O)[C@H]2OCO[C@H]21	–	–	0.78 µg/mL (≈ 1.69 µM)	3.13 µg/mL (≈ 6.78 µM)	6.25 µg/mL (≈ 13.5 µM)	1.56 µg/mL (≈ 3.38 µM)	1.56 µg/mL (≈ 3.38 µM)	1.56 µg/mL (≈ 3.38 µM)	–
CCO[C@@H]1[C@H](NC(=O)/C(C)=C/c2cc(F)c(OCCCF)cc2F)[C@H](O)[C@@H](O)[C@H]2OCO[C@H]21	–	–	1 µg/mL (≈ 2.1 µM)	8 µg/mL (≈ 16.8 µM)	8 µg/mL (≈ 16.8 µM)	1 µg/mL (≈ 2.1 µM)	4 µg/mL (≈ 8.41 µM)	4 µg/mL (≈ 8.41 µM)	–
C/C(=C\c1cc(F)c(OCCCF)cc1F)C(=O)N[C@H]1C[C@@H]2OCO[C@@H]2[C@H](O)[C@H]1O	–	–	–	8 µg/mL (≈ 18.5 µM)	16 µg/mL (≈ 37.1 µM)	8 µg/mL (≈ 18.5 µM)	8 µg/mL (≈ 18.5 µM)	4 µg/mL (≈ 9.27 µM)	–
C=CCOc1ccc(/C=C(\C)C(=O)N[C@@H]2[C@H](O)[C@@H](O)[C@H]3OCO[C@H]3[C@@H]2O)cc1O	–	–	1.56 µg/mL (≈ 3.83 µM)	50 µg/mL (≈ 123 µM)	50 µg/mL (≈ 123 µM)	0.8 µg/mL (≈ 1.96 µM)	1.56 µg/mL (≈ 3.83 µM)	1.56 µg/mL (≈ 3.83 µM)	–
CC(=O)[C@H]1O[C@@H](Oc2ccc(/C=C(\C)C(=O)N[C@@H]3[C@H](O)[C@@H](O)[C@H]4OCO[C@H]4[C@@H]3O)cc2O)[C@@H](O)[C@@H]1O [HYGROMYCIN A]	–	–	12.5 µg/mL (≈ 24.4 µM)	25 µg/mL (≈ 48.9 µM)	50 µg/mL (≈ 97.8 µM)	6.25 µg/mL (≈ 12.2 µM)	12.5 µg/mL (≈ 24.4 µM)	6.25 µg/mL (≈ 12.2 µM)	–
